Measurements published in US20100022531A1, “NOVEL COMPOUNDS AS P2X7 MODULATORS AND USES THEREOF” (RENOVIS, INC., priority 2005, published 2010).
Where two headings read alike, the source gives them in different places.

Target: T1, P2X7 receptor (Homo sapiens, UniProt Q99572)
T1 construct: host or cells: THP-1 cells differentiated with LPS and IFN-γ
T1 sequence (Q99572 1-595): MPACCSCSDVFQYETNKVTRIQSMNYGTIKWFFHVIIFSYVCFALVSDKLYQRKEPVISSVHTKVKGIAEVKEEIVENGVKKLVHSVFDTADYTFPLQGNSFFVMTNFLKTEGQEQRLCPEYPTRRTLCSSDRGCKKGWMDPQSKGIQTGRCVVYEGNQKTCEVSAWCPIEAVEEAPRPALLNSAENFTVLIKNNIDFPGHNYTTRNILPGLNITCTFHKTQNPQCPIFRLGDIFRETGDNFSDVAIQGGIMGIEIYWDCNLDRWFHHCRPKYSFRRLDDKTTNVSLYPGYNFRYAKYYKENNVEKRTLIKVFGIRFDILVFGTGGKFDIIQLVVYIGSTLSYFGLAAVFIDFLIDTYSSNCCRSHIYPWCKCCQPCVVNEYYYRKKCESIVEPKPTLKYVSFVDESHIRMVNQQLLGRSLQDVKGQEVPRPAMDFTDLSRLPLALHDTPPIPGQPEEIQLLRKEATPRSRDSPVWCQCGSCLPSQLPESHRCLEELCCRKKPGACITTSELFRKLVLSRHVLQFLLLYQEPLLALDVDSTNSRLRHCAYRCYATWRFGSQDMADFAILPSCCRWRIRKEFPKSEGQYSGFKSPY
Assay: Alternate method for IL-1β release assay (differentiated THP-1 cells, BzATP-stimulated, ELISA)
Type: cell-based
Details: P2X7; for inhibition at 0.3 µM: read-out: IL-1β % inhib @ 0.3 μM; for inhibition at 0.1 µM: read-out: IL-1β % inhib @ 0.1 μM
Procedure: Alternate Method for IL-1β Release Assay
THP-1 cells (ATCC Cat #285-IF-100) are plated in 96 well plates at a concentration of 200,000 cells per well and allowed to differentiate in RPMI-1640 media (ATCC Cat #30-2001) containing 10% FBS, 100 IU/mL penicillin, 100 ug/mL streptomycin, 100 ng/mL LPS and 100 ng/mL IFN-γ for 16 hours. Following differentiation, the cells are treated for an additional 2 hours in RPMI-1640 media containing 100 IU/mL penicillin, 100 ug/mL streptomycin and fresh LPS at 100 ng/mL. The cells are then pretreated for 30 minutes with the compound of interest at the appropriate concentration in RPMI media containing 100 IU/mL penicillin, 100 ug/mL streptomycin. Following the pretreatment 2′,3′-O-(4-benzoylbenzoyl)-adenosine 5′-triphosphate (Sigma Aldrich Cat# B6396) is added to a final concentration of 250 uM and the cells incubated for an additional 45 minutes. 30 uL of cell supernatant is then collected and IL-1β levels determined via ELISA (R&D systems Cat. # HSLB50) according to manufacturers recommendations using the Tecan Safire plate reader. Background adjusted IL-1β levels of drug treated and non-treated cells are used to calculate the percent inhibition.

[1] = 0.3 μM compound (symbols * to ****)
[2] = 0.3 μM compound (asterisk symbols)
[3] = 0.1 μM compound (symbols + to ++++)

inhibition at 0.3 µM [1] | inhibition at 0.3 µM [2] | SMILES | other results
> 75% |  | Fc1ccc(CN2CCc3c(ncnc3NCC34CC5CC(CC(C5)C3)C4)C2)c(F)c1 [Compound 220] | 
25 to 50% |  | CN(CC(=O)N1CCc2c(ncnc2NCC2C3CC4CC(C3)CC2C4)C1)Cc1ccc(Cl)cc1 (centres unmarked) [Compound 306] | 
 | 25 to 50% | Clc1ccc(CN2CCc3c(ncnc3NCC34CC5CC(CC(C5)C3)C4)C2)c(Cl)c1 [Compound 181] | 
0 to 25% |  | O=C(CN1CCC(F)(F)CC1)N1CCc2c(ncnc2NCC2C3CC4CC(C3)CC2C4)C1 (centres unmarked) [Compound 310] | 
 | > 75% | O=C(c1cc(F)ccc1F)N1CCc2c(ncnc2NCC23CC4CC(CC(C4)C2)C3)C1 [Compound 134] | 
> 75% |  | COc1cc(CN2CCc3c(ncnc3NCC34CC5CC(CC(C5)C3)C4)C2)cc(OC)c1 [Compound 244] | 
 | > 75% | O=C(c1cccc(Cl)c1Cl)N1CCc2c(ncnc2NCC23CC4CC(CC(C4)C2)C3)C1 [Compound 137] | 
25 to 50% |  | O=C(CN1CCN(c2ncncn2)CC1)N1CCc2c(ncnc2NCC2C3CC4CC(C3)CC2C4)C1 (centres unmarked) [Compound 302] | 
0 to 25% |  | O=C(CN1CCC(C(F)(F)F)CC1)N1CCc2c(ncnc2NCC2C3CC4CC(C3)CC2C4)C1 (centres unmarked) [Compound 300] | 
 | 25 to 50% | c1ccc(Oc2cccc(CN3CCc4c(ncnc4NCC45CC6CC(CC(C6)C4)C5)C3)c2)cc1 [Compound 179] | 
 |  | O=C(OCc1cncs1)N1CCc2c(ncnc2NCC23CC4CC(CC(C4)C2)C3)C1 [Compound 349] | inhibition at 0.1 µM [3]: 0 to 25%
0 to 25% |  | COc1cc(F)c(CN2CCc3c(ncnc3NCC34CC5CC(CC(C5)C3)C4)C2)c(F)c1 [Compound 235] | 
 |  | O=C(OCc1ncoc1-c1ccccc1)N1CCc2c(ncnc2NCC23CC4CC(CC(C4)C2)C3)C1 [Compound 346] | inhibition at 0.1 µM [3]: 0 to 25%
50 to 75% |  | CCOc1cccc(CN2CCc3c(ncnc3NCC34CC5CC(CC(C5)C3)C4)C2)c1 [Compound 236] | 
 | 50 to 75% | CCCS(=O)(=O)N1CCc2c(ncnc2NCC23CC4CC(CC(C4)C2)C3)C1 [Compound 8] | 
 | 50 to 75% | O=C(Cc1ccc(F)cc1)N1CCc2c(ncnc2NCC23CC4CC(CC(C4)C2)C3)C1 [Compound 96] | 
25 to 50% |  | N#Cc1ccc(CN2CCc3c(ncnc3NCC34CC5CC(CC(C5)C3)C4)C2)cc1 [Compound 214] | 
 | 0 to 25% | COc1ccc(C(=O)N2CCc3c(ncnc3NCC34CC5CC(CC(C5)C3)C4)C2)cc1 [Compound 90] | 
> 75% |  | COc1ccccc1CN1CCc2c(ncnc2NCC23CC4CC(CC(C4)C2)C3)C1 [Compound 226] | 

inhibition at 0.3 µM [1] | inhibition at 0.3 µM [2] | SMILES | other results
> 75% |  | COc1ccc(OC)c(CN2CCc3c(ncnc3NCC34CC5CC(CC(C5)C3)C4)C2)c1 [Compound 242] | 
 | 25 to 50% | O=C(COc1ccc(Cl)cc1)N1CCc2c(ncnc2NCC23CC4CC(CC(C4)C2)C3)C1 [Compound 119] | 
> 75% |  | COc1cc(CN2CCc3c(ncnc3NCC34CC5CC(CC(C5)C3)C4)C2)ccc1F [Compound 240] | 
 | 25 to 50% | O=S(=O)(c1ccc(Cl)cc1F)N1CCc2c(ncnc2NCC23CC4CC(CC(C4)C2)C3)C1 [Compound 59] | 
 | > 75% | CCCCCN1CCc2c(ncnc2NCC23CC4CC(CC(C4)C2)C3)C1 [Compound 169] | 
 | 0 to 25% | O=C(Cc1ccccc1Br)N1CCc2c(ncnc2NCC23CC4CC(CC(C4)C2)C3)C1 [Compound 153] | 
> 75% |  | CC(C)(C)CN1CCc2c(ncnc2NCC23CC4CC(CC(C4)C2)C3)C1 [Compound 211] | 
 | 0 to 25% | CC(CN1CCc2c(ncnc2NCC23CC4CC(CC(C4)C2)C3)C1)c1ccccc1 (centres unmarked) [Compound 165] | 
25 to 50% |  | CC1CCN(CC(=O)N2CCc3c(ncnc3NCC3C4CC5CC(C4)CC3C5)C2)CC1 (centres unmarked) [Compound 292] | 
0 to 25% |  | FC1(F)Oc2ccc(CN3CCc4c(ncnc4NCC45CC6CC(CC(C6)C4)C5)C3)cc2O1 [Compound 238] | 
 | 50 to 75% | CC(C)(C)C(=O)N1CCc2c(ncnc2NCC23CC4CC(CC(C4)C2)C3)C1 [Compound 107] | 
 |  | C[C@H](N)C(=O)N1CCc2c(ncnc2NCC(O)C23CC4CC(CC(C4)C2)C3)C1 (stereo partly drawn) [Compound 713, (S)-1-[4-(2-Adamantan-1-yl-2-hydroxy-ethylamino)-5,8-dihydro-6H-pyrido[3,4-d]pyrimidin-7-yl]-2-amino-propan-1-one] | inhibition at 0.03 µM (at 0.03 μM (asterisk symbols), read-out: IL-1β % inhib @ 0.3 μM or @ 0.03 μM): 0 to 25%
 |  | O=C(OCc1cnccn1)N1CCc2c(ncnc2NCC23CC4CC(CC(C4)C2)C3)C1 [Compound 348] | inhibition at 0.1 µM [3]: 25 to 50%
0 to 25% |  | Brc1cc2c(cc1CN1CCc3c(ncnc3NCC34CC5CC(CC(C5)C3)C4)C1)OCO2 [Compound 198] | 
0 to 25% |  | O=C(CN1CCCCCC1)N1CCc2c(ncnc2NCC2C3CC4CC(C3)CC2C4)C1 (centres unmarked) [Compound 275] | 
 | 0 to 25% | c1ccc(CCCN2CCc3c(ncnc3NCC34CC5CC(CC(C5)C3)C4)C2)cc1 [Compound 170] | 
 |  | O=C(C1CC1)N1CCc2c(ncnc2NCC23CC4CC(CC(C4)C2)C3)C1 [Compound 115, 4-[(Adamantan-1-ylmethyl)-amino]-5,8-dihydro-6H-pyrido[3,4-d]pyrimidin-7-yl-cyclopropyl-methanone] | inhibition at 0.1 µM (0.1 μM compound (plus symbols)): > 75%
0 to 25% |  | COc1ccc(CCN(C)CC(=O)N2CCc3c(ncnc3NCC3C4CC5CC(C4)CC3C5)C2)cc1OC (centres unmarked) [Compound 297] | 
0 to 25% |  | Brc1ccccc1CN1CCc2c(ncnc2NCC23CC4CC(CC(C4)C2)C3)C1 [Compound 228] | 

inhibition at 0.3 µM [1] | inhibition at 0.3 µM [2] | SMILES | other results
 | > 75% | Cc1nn(-c2ccccc2)nc1C(=O)N1CCc2c(ncnc2NCC23CC4CC(CC(C4)C2)C3)C1 [Compound 128] | 
 | 25 to 50% | O=C(c1cccc(C(F)(F)F)c1)N1CCc2c(ncnc2NCC23CC4CC(CC(C4)C2)C3)C1 [Compound 89] | 
 | 0 to 25% | COc1ccc(Oc2ccc(S(=O)(=O)N3CCc4c(ncnc4NCC45CC6CC(CC(C6)C4)C5)C3)cc2)cc1 [Compound 32] | 
 | > 75% | O=S(=O)(c1cccc2cccnc12)N1CCc2c(ncnc2NCC23CC4CC(CC(C4)C2)C3)C1 [Compound 7] | 
0 to 25% |  | Fc1ccc(Br)cc1CN1CCc2c(ncnc2NCC23CC4CC(CC(C4)C2)C3)C1 [Compound 229] | 
25 to 50% |  | O=C(CN1CCC(Cc2ccccc2)CC1)N1CCc2c(ncnc2NCC23CC4CC(CC(C4)C2)C3)C1 [Compound 264] | 
 | 50 to 75% | O=S(=O)(c1cc(Cl)ccc1Cl)N1CCc2c(ncnc2NCC23CC4CC(CC(C4)C2)C3)C1 [Compound 61] | 
0 to 25% |  | CN(C)CCCN(C)CC(=O)N1CCc2c(ncnc2NCC2C3CC4CC(C3)CC2C4)C1 (centres unmarked) [Compound 276] | 
 |  | CCS(=O)(=O)N1CCc2c(ncnc2NCC23CC4CC(CC(C4)C2)C3)C1 [Compound 9] | inhibition at 0.1 µM (0.1 μM compound (plus symbols)): > 75%
 | > 75% | COc1ccc(C(=O)N2CCc3c(ncnc3NCC34CC5CC(CC(C5)C3)C4)C2)cc1F [Compound 158] | 
 | 0 to 25% | O=S(=O)(c1ccc(C(F)(F)F)cc1)N1CCc2c(ncnc2NCC23CC4CC(CC(C4)C2)C3)C1 [Compound 58] | 
0 to 25% |  | CN(CC(=O)N1CCc2c(ncnc2NCC2C3CC4CC(C3)CC2C4)C1)Cc1ccco1 (centres unmarked) [Compound 295] | 
 |  | OC12CC3CC(C1)CC(CNc1ncnc4c1CCN(Cc1ccccc1)C4)(C3)C2 [Compound 326, 3-[(7-Benzyl-5,6,7,8-tetrahydro-pyrido[3,4-d]pyrimidin-4-ylamino)-methyl]-adamantan-1-ol] | inhibition at 0.1 µM [3]: > 75%
 | 25 to 50% | CCN1CCc2c(ncnc2NCC23CC4CC(CC(C4)C2)C3)C1 [Compound 190] | 
 | > 75% | O=S(=O)(c1ccccc1Cl)N1CCc2c(ncnc2NCC23CC4CC(CC(C4)C2)C3)C1 [Compound 48] | 
 | > 75% | CC1(C)C2CC=C(CN3CCc4c(ncnc4NCC45CC6CC(CC(C6)C4)C5)C3)C1C2 (centres unmarked) [Compound 184] | 
 | 25 to 50% | N#Cc1ccc(S(=O)(=O)N2CCc3c(ncnc3NCC34CC5CC(CC(C5)C3)C4)C2)cc1 [Compound 25] | 
 | 50 to 75% | Cc1c(S(=O)(=O)N2CCc3c(ncnc3NCC34CC5CC(CC(C5)C3)C4)C2)cnn1-c1ccccc1 [Compound 19] | 
